# From patent US12459951B2, “Compounds that interact with RAS superfamily proteins for treatment of cancers, inflammatory diseases, rasopathies, and fibrotic disease” (SHY Therapeutics, LLC, priority 2022, dated 2025)
# Legend:
# KRas G12D mutant = assay: Ras GTP Binding Domain Inhibition Assay (Ras Superfamily Assay); conditions: 20 μM compound; for KRas G12D mutant + SOS: % inh.: with SOS; for KRas G12D mutant: % inh.: without SOS
# Excerpt: (§1) Biological Example 3: Ras GTP Binding Domain Inhibition Assay
# (§2) The assays described in Example 3 are collectively referred to as the “Ras Superfamily Assay” throughout this application.
# (§3) A Ras Superfamily Activity Assay (as disclosed in International Application No. PCT/US2018/038613, filed Jun. 20, 2018, which is incorporated by reference in its entirety) was used as a specific assay to evaluate compounds against the following for the following Ras Superfamily proteins: KRas wild type, KRas Q61H mutant, KRas G12C mutant, KRas G12D mutant, Rac-1, and Rho-A.
# (§4) • 25 mM Tris-HCl, pH 7.4 • 27 mM KCl • 137 mM NaCl • 1 mM MgCl2 • 1 mM DTT Buffer-II: • 50 mM Tris-HCl, pH 7.0 • 1 mM MgCl2 • 1 mM DTT
# (§5) The small GTPases proteins: KRas wild type. KRas Q61H mutant, KRas G12C mutant, KRas G12D mutants, Rac-1, and Rho-A were expressed as His-tagged proteins. In addition, the Guanosine nucleotide Exchange Factor (GEF) Sos protein (residues 556-1049) was expressed as a His-tagged protein. In cells, the guanine nucleotide exchange factor Sos protein promotes activation of Ras proteins by stimulating an exchange of GDP for GTP. The inclusion of Sos to the Ras GTP binding domain inhibition assay may be considered as an alternative representation of physiological cellular conditions for evaluating the inhibitory activity of some of the tested small molecules.
# (§6) For the assay, all purified small GTPases proteins were diluted in Buffer-I or Buffer-II to a final concentration of 10-30 μg/mL. 200 μL of each diluted protein was added to a nickel-coated 96-well plate and incubated overnight at 4° C. Then the protein solution was discarded and 200 μL of Buffer-I or Buffer-II was added to each well in the presence of 1% DMSO. Compounds to be tested were added to the protein-coated wells at final concentration of 20 μM, and incubated for 3 hours at room temperature with and without 10-30 μg/mL of Sos added to the final hour of the incubation. When performing IC50 measurements a serial dilution of all tested concentrations was added. Then Cy3-GTP or Cy5-GTP was added to each well to a final concentration of 100 nM. The labeled GTP was incubated for 45 minutes at room temperature. Following GTP incubation, wells were washed 3× in Buffer-I or Buffer-II and 200 μL of Buffer-I or Buffer-II was added to each well. Following washes, the amount of bound labeled-GTP was measured using a SpectraMax M3 (Molecular Devices).
# KRas wild type = assay: as above; conditions: 20 μM compound; for KRas wild type + SOS: % inh.: with SOS; for KRas wild type: % inh.: without SOS
# Excerpt: as §1, §2, §3, §4, §5, §6
# Rac-1 = target: T1, Rac-1 (Homo sapiens, UniProt P63000); assay: as above; conditions: read-out: Rac-1: % inh.
# T1 construct: made in house
# Excerpt: as §1, §2, §3, §4, §5, §6
# Akt phosphorylation = assay: Akt Phosphorylation Assay (western blot), Panc-1; assay type: cell-based, human; conditions: at 10 μM, * = activation
# Procedure: Protocol for Western Akt Cell-Based Phosphorylation Assay
# This assay is referred to as the “Akt Phosphorylation Assay” throughout this application.
# Human tumor-derived pancreatic cancer cell line Panc-1 (expressing KRas G12D mutant) was purchased from American Type Culture Collection and grown in complete DMEM-High Glucose supplemented with penicillin (100 U/mL), streptomycin (100 μg/mL), and 10% heat-inactivated FBS at 37° C. in a humidified incubator with 5% CO2.
# Method 1: Cells were plated at 350000 cells/well density in a 12-well plate, allowed 3 hours to adhere to the plate, then starved in the appropriate medium in the presence of 0.5% FBS overnight. The small molecules to be tested were added to the cells in the final concentration of 10 μM in the presence of 0.3% DMSO for 6 hours incubation at 37° C. Next, cells were stimulated with 1.5 ng/ml EGF for 15 minutes then cells were lysed with lysis buffer containing 1% Triton X-100, EDTA, and Halt™ Protease & Phosphatase Inhibitor Cocktail (Thermo Scientific). Protein concentration was assessed by BCA protein assay (Thermo Scientific). Phosphorylation level of Akt was determined by western blot.
# Method 2: Cells were plated at 350000 cells/well density in a 12-well plate in 10% FBS. The next day small molecules to be tested were added to the cells in the final concentration of 10 μM in the presence of 0.3% DMSO for 6 hours incubation at 37° C. For IC50 value determination, serial dilutions of compounds were added to cells under the same conditions. Next, cells were lysed with lysis buffer containing 1% Triton X-100, EDTA, and Halt™ Protease & Phosphatase Inhibitor Cocktail (Thermo Scientific). Protein concentration was assessed by BCA protein assay (Thermo Scientific). Phosphorylation level of Akt was determined by western blot.
# Western blot protocol: Equal amounts of protein (15-50 μg) were separated by SDS-PAGE and transferred to nitrocellulose membranes (Invitrogen by Thermo Fisher Scientific). The membrane was stained with Ponceau S Stain (Boston BioProducts) to verify uniform protein loading. Membranes were blocked with 10% milk and phosphorylation levels of Akt were assessed by incubating overnight at 4° C. with anti-phospho-Akt (Ser473) antibody (Cell Signaling) followed by HRP-conjugated secondary antibody (Jackson Immunoresearch, West Grove, PA). Bands were incubated in Amersham ECL Prime Western Blotting Detection Reagent (GE Healthcare) and visualized using the ChemiDoc MP imaging system (Bio-Rad).
Compound,KRas G12D mutant + SOS: % inh. (KRas G12D mutant),KRas G12D mutant: % inh. (KRas G12D mutant),KRas wild type + SOS: % inh. (KRas wild type),KRas wild type: % inh. (KRas wild type),inhibition at 20 µM (Rac-1) [%],% inh of Akt phosphorylation in Panc-1 (Akt phosphorylation)
"COCCO[C@H]1C[C@H](Nc2nc(-c3nccn3C)nn3cc(-c4ccnc(OC)c4)c(C)c23)C1 [Compound 161, N-((1r,3r)-3-(2-Methoxy-ethoxy)cyclo-butyl)-6-(2-methoxy-pyridin-4-yl)-5-methyl-2-(1-methyl-1H-imidazol-2-yl)pyrrolo[2,1-f][1,2,4]triazin-4-amine]",0 (0 = 0% inhibition),A (A = 1-25% inhibition),0 (0 = 0% inhibition),A (A = 1-25% inhibition),1 to 25,A* (1-25% activation)
"Cc1ccnc(Nc2nc(-c3nccn3C)nn3cc(-c4ccn(C5CC5)n4)c(C)c23)c1 [Compound 144, 6-(1-Cyclopropyl-1H-pyrazol-3-yl)-5-methyl-2-(1-methyl-1H-imidazol-2-yl)-N-(4-methylpyridin-2-yl)pyrrolo[2,1-f][1,2,4]triazin-4-amine]",D (D = 76-100% inhibition),D (D = 76-100% inhibition),D (D = 76-100% inhibition),C (C = 50-75% inhibition),76 to 100,B* (26-49% activation)
"Cc1c(-c2ccn(C3CC3)n2)cn2nc(-c3nccn3C)nc(Nc3cc(OCCN(C)C)ccn3)c12 [Compound 147, 6-(1-Cyclopropyl-1H-pyrazol-3-yl)-N-(4-(2-(dimethylamino)ethoxy)pyridin-2-yl)-5-methyl-2-(1-methyl-1H-imidazol-2-yl)pyrrolo[2,1-f][1,2,4]triazin-4-amine]",–,–,–,–,0,A* (1-25% activation)
"Cc1c(-c2ccn(C3CC3)n2)cn2nc(-c3nccn3C)nc(Nc3cc(OCCCN(C)C)ccn3)c12 [Compound 148, 6-(1-Cyclopropyl-1H-pyrazol-3-yl)-N-(4-(3-(dimethylamino)propoxy)pyridin-2-yl)-5-methyl-2-(1-methyl-1H-imidazol-2-yl)pyrrolo[2,1-f][1,2,4]triazin-4-amine]",–,–,–,–,0,A (1-25% inhibition)

# Continued, in another order:
KRas G12D mutant + SOS: % inh. (KRas G12D mutant),KRas G12D mutant: % inh. (KRas G12D mutant),KRas wild type + SOS: % inh. (KRas wild type),KRas wild type: % inh. (KRas wild type),inhibition at 20 µM (Rac-1) [%],Compound,% inh of Akt phosphorylation in Panc-1 (Akt phosphorylation)
B (B = 26-49% inhibition),B (B = 26-49% inhibition),B (B = 26-49% inhibition),B (B = 26-49% inhibition),26 to 49,"Cc1c(-c2ccn(C)n2)cn2nc(-c3nccn3C)nc(Nc3cc(OCC(F)(F)F)ccn3)c12 [Compound 129, 5-Methyl-2-(1-methyl-1H-imidazol-2-yl)-6-(1-methyl-1H-pyrazol-3-yl)-N-(4-(2,2,2-trifluoroethoxy)pyridin-2-yl)pyrrolo[2,1-f][1,2,4]triazin-4-amine]",C* (46-84% activation)
D (D = 76-100% inhibition),D (D = 76-100% inhibition),D (D = 76-100% inhibition),D (D = 76-100% inhibition),76 to 100,"Cc1c(-c2ccn(C(C)C)n2)cn2nc(-c3nccn3C)nc(Nc3cc(OCCN(C)C)ncn3)c12 [Compound 123, N-(6-(2-(Dimethylamino)ethoxy)pyrimidin-4-yl)-6-(1-isopropyl-1H-pyrazol-3-yl)-5-methyl-2-(1-methyl-1H-imidazol-2-yl)pyrrolo[2,1-f][1,2,4]triazin-4-amine]",B* (26-49% activation)
D (D = 76-100% inhibition),D (D = 76-100% inhibition),D (D = 76-100% inhibition),D (D = 76-100% inhibition),76 to 100,"COc1ccnc(Nc2nc(-c3nccn3C)nn3cc(-c4ccn(C)n4)c(C)c23)c1 [Compound 102, N-(4-Methoxypyridin-2-yl)-5-methyl-2-(1-methyl-1H-imidazol-2-yl)-6-(1-methyl-1H-pyrazol-3-yl)pyrrolo[2,1-f][1,2,4]triazin-4-amine]",D* (85-100% activation)
D (D = 76-100% inhibition),D (D = 76-100% inhibition),D (D = 76-100% inhibition),D (D = 76-100% inhibition),50 to 75,"COc1ccnc(Nc2nc(-c3nccn3C)nn3cc(-c4cnn(C(C)C)c4)c(C)c23)c1 [Compound 165, 6-(1-Isopropyl-1H-pyrazol-4-yl)-N-(4-methoxypyridin-2-yl)-5-methyl-2-(1-methyl-1H-imidazol-2-yl)pyrrolo[2,1-f][1,2,4]triazin-4-amine]",D* (85-100% activation)
D (D = 76-100% inhibition),D (D = 76-100% inhibition),C (C = 50-75% inhibition),D (D = 76-100% inhibition),76 to 100,"Cc1c(-c2ccn(C(C)C)n2)cn2nc(-c3nccn3C)nc(Nc3nccc(OCCO)n3)c12 [Compound 121, 2-((2-((6-(1-Isopropyl-1H-pyrazol-3-yl)-5-methyl-2-(1-methyl-1H-imidazol-2-yl)pyrrolo[2,1-f][1,2,4]triazin-4-yl)amino)pyrimidin-4-yl)oxy)ethan-1-ol]",B* (26-49% activation)
